According to PMC6150271, “‘Click Chemistry’ Synthesis of Novel Natural Product-Like Caged Xanthones Bearing a 1,2,3-Triazole Moiety with Improved Druglike Properties as Orally Active Antitumor Agents” (Molecules : A Journal of Synthetic Chemistry and Natural …, 2017):
In brackets after ≈: the same amount, converted by molar mass. Like-named read-outs stand apart in the source and are kept apart here. Marks after values point to notes of the source that are not given here.

How the values were obtained:
[1] = tested on: human colon carcinoma HCT-116 cell line; assay: MTT antiproliferative assay, HCT116; format: cell-based; conditions: 72 h
Description: (§1) The antiproliferative activity of the ten synthesized caged xanthone derivatives, as well as the lead compound DDO-6101 and GA were assessed with the 3-(4,5-dimethylthiazol-2-yl)-2,5-diphenyltetrazolium bromide (MTT) assay, as previously reported, against six human cancer cell lines, including the human lung carcinoma A549 cell line, taxol-resistant A549 cell line (A549/taxol), cisplatin-resistant A549 cell line (A549/cisplatin), the human hepatocellular carcinoma HepG2 cell line, the human colon carcinoma HCT-116 cell line, and the human glioblastoma U251 cell line. DDO-6101 and GA were used as positive controls for the in vitro assay.
(§2) Cancer cell lines were obtained from Cell Bank of Shanghai, Chinese Academy of Sciences. Cells were cultured in 90% RPMI 1640 medium (GIBCO, Invitrogen Corporation, New York, NY, USA) supplemented with 10% fetal bovine serum (Sijiqing Biotechnology Co., Hangzhou, China), 100 U/mL benzyl penicillin, and 100 μg/mL streptomycin in a humidified environment with 5% CO2 at 37 °C. All the tested compounds were dissolved in DMSO at a concentration of 0.01 mol/L and stored at −4 °C.
(§3) The inhibition of tumour cell growth was measured by a modified tetrazolium (MTT) salt assay. Cells were cultured in a 96-well plate and treated with culture medium alone or different concentrations of the compounds. The cells were incubated for 72 h, and then the MTT assay reagent was added. After a 4 h incubation, the formazan product was quantitated at 570 nm. The IC50 values (the concentrations that gave rise to 50% inhibition of cell viability) were calculated using GraphPad Prism 6 using a variable slope (four parameters).

[2] = logD by potentiometric titration (Gemini Profiler); format: physicochemical; conditions: pH 7.4; measured on Gemini Profiler instrument (pION); read-out: Log D 7.4
[3] = Aqueous solubility by HPLC; conditions: deionized water, thermodynamic from solid
Source text: (§4) In parallel with the in vitro antitumor activity testing, the physicochemical properties of the target caged xanthone derivatives were theoretically predicted and experimentally determined in an effort to identify potential druglike compounds prior to the time-consuming and costly development and optimization of derivatives that may ultimately fail in efficacy experiments in vivo. The partition coefficient (logD) was experimentally determined on a Gemini Profiler instrument (pION, Inc., Woburn, MA, USA) by a potentiometric titration method. The polar surface area (PSA), as well as intestinal absorption level, were theoretically predicted by Accelrys Discovery Studio 4.0 (BIOVIA, San Diego, CA, USA) using the ADMET protocol. […] The permeability coefficient (Pe) was determined using a standard parallel artificial membrane permeability assay (PAMPA) on a PAMPA Explorer instrument (pION).
(§5) A HPLC system with an ultraviolet (UV) detector was used to detect the solubility of the compounds. The optimal wavelength was 290 nm. Ethanol/water (85:15) was an efficient eluent at a flow rate of 0.5 mL/min. The compounds were stirred in deionized water overnight to maximize the retention of the compounds in solution. Then, the solutions were filtered and the supernatant was used as a fluid sample for HPLC detection. The permeability (Pe) of the compounds was tested with the help of a standard PAMPA (pION). PAMPA was performed on a PAMPA Explorer instrument (pION) with the PAMPA Explorer command software (Version 3.7.4.1). The compounds were diluted to 10 mM with the system solution buffer (pH 7.4). Then, 150 μL of the diluted compound solution was transferred to a UV plate, and the UV spectrum was collected and used as a reference. Then, paint the membrane with 5 μL of gastrointestinal tract (GIT) lipid. The acceptor chamber was filled with 200 μL of acceptor solution buffer, and the donor chamber was filled with 200 μL of diluted compound solution. The PAMPA sandwich was assembled and left at 25 °C for 4 h. The UV spectra (240–500 nm) from the donor and the acceptor were collected. The permeability coefficient was calculated with the PAMPA Explorer Command software (Version 3.7.4.1) based on the area under the curve (AUC) of the reference plate, the donor plate, and the acceptor plate. The permeability coefficient of the compound was tested for four times, and the data are shown as the average values.

[4] = tested on: lung cancer A549 transplanted mouse model; assay: In vivo tumor growth inhibition, intravenous administration; set-up: species or system Kunming mice; conditions: for Body Weight After-Dose / Inhibitory Rate / Weight of Tumor: two weeks
Description: The lung cancer A549 transplanted mouse model was employed. DDO-6101 and antitumor drug 5-fluorouracil (5-FU) were also tested for comparison.
(§6) Kunming mice with body weights of 18–22 g were transplanted with lung cancer A549 cells according to protocols of transplant tumor research, as previously reported. Twenty-four hours after tumor transplantation, animals were weighed and randomly divided into five groups. All test drugs were given […] 24 h after tumor transplantation. The treated groups were intravenously injected or administered per os different doses of test compounds, respectively. The negative control group received 0.9% normal saline. Treatments were conducted at a frequency of one dose per two days for the intravenous group or one dose per day for the per os group for two or one week, respectively. All animals were sacrificed 24 h after the final treatment. All data are presented as mean ± SD and the statistical significance was evaluated by t-test.

[5] = tested on: cisplatin-resistant A549 cell line (A549/cisplatin); assay: MTT antiproliferative assay, A549/cisplatin; format: cell-based; conditions: Homo sapiens, 72 h
Description: as §1, §2, §3

[6] = tested on: human hepatocellular carcinoma HepG2 cell line; assay: MTT antiproliferative assay, HepG2; format: cell-based; conditions: 72 h
Description: as §1, §2, §3

[7] = tested on: human lung carcinoma A549 cell line; assay: MTT antiproliferative assay, A549; format: cell-based; conditions: for IC50: Homo sapiens, A549, MTT, 72 h
Description: as §1, §2, §3

[8] = Parallel artificial membrane permeability assay (PAMPA)
Source text: as §4
as §5, with “The PAMPA sandwich was assembled and left at 25 °C for 4 h.” left out

[9] = tested on: lung cancer A549 transplanted mouse model; assay: In vivo tumor growth inhibition, per os administration; set-up: species or system Kunming mice; conditions: for Body Weight After-Dose / Inhibitory Rate / Weight of Tumor: 50 mg/kg daily, one week; for Body Weight Pre-Dose: 50 mg/kg
Source text: Subsequently, 8g was set to determine further its in vivo efficacy with per os administration on the growth of inoculated A549 in mice using DDO-6101 as a comparison control. […] Thus, compound 8g was identified as a new and orally-active natural-product-like caged xanthone and also a promising antitumor agent for further clinical development.
as §6

[10] = tested on: taxol-resistant A549 cell line (A549/taxol); assay: MTT antiproliferative assay, A549/taxol; format: cell-based; conditions: Homo sapiens
Description: as §1, §2, §3

U2OS cells = assay: MTT antiproliferative assay, U2OS; format: cell-based; conditions: Homo sapiens, 72 h
[11] = A549/Taxol, MTT, 72 h, read-out: IC50 A549/Taxol

| IC50 [1] | logD [2] | solubility [3] | IC50 [5] | IC50 [6] | IC50 [7] | Papp at 4 h, 10 mM ([8]; pH 5) | Papp at 4 h, 10 mM ([8]; pH 6.2) | Papp at 4 h, 10 mM ([8]; pH 7.4) | IC50 [10, 11] | IC50 (U2OS cells) | SMILES | Body Weight Pre-Dose ([4]; 20 mg/kg) | Body Weight After-Dose ([4]; 20 mg/kg) | Inhibitory Rate ([4]; 20 mg/kg) | Weight of Tumor ([4]; 20 mg/kg) | Body Weight After-Dose [9] | Inhibitory Rate [9] | Weight of Tumor [9] | Body Weight Pre-Dose [9] | also measured |
| --- | --- | --- | --- | --- | --- | --- | --- | --- | --- | --- | --- | --- | --- | --- | --- | --- | --- | --- | --- | --- |
| 280 ± 30 nM | 1.3 | 3.02 mM (≈ 1740 µg/mL) | 330 ± 70 nM | 3790 ± 430 nM | 310 ± 20 nM | 51.3 ± 4.8 ×10⁻⁶ cm/s | 63.1 ± 5.6 ×10⁻⁶ cm/s | 74.4 ± 6.8 ×10⁻⁶ cm/s | 420 ± 50 nM | 950 ± 210 nM | CC(C)=CCC12OC(C)(C)C3CC(C=C4C(=O)c5c(OCc6cn(CCN7CCOCC7)nn6)cccc5OC431)C2=O (centres unmarked) [Compound 8g] | 20.67 ± 1.30 g | 27.73 ± 2.78 g | 71.32% | 0.40 ± 0.14 ^b g | 27.73 ± 2.78 g | 66.43% | 0.47 ± 0.12 ^a g | 20.67 ± 1.20 g | Body Weight Pre-Dose ([4]; 5 mg/kg): 20.80 ± 1.53 g; Body Weight After-Dose ([4]; 5 mg/kg): 28.53 ± 2.81 g; Inhibitory Rate ([4]; 5 mg/kg): 30.88%; Weight of Tumor ([4]; 5 mg/kg): 0.94 ± 0.24 ^a g; Body Weight Pre-Dose ([4]; 10 mg/kg): 21.40 ± 1.81 g; Body Weight After-Dose ([4]; 10 mg/kg): 28.08 ± 2.66 g; Inhibitory Rate ([4]; 10 mg/kg): 52.21%; Weight of Tumor [4]: 0.65 ± 0.17 ^b g; fold higher activity than DDO-6101 in A549 cells ([7]; from IC50 values): approximately eight-fold; Pe range ([8]; range under different pH from 5.0 to 7.4): 51.3–74.4 × 10^–6 cm/s; IC50 ([10]; range over both resistant A549 lines and both compounds, read-out: IC50 values, taxol-resistant and cisplatin-resistant A549 cell lines): 330 to 550 nM |
| 1090 ± 210 nM | 0.7 | 4.02 mM (≈ 2420 µg/mL) | 1290 ± 110 nM | 2910 ± 30 nM | 930 ± 80 nM | 9.7 ± 0.5 ×10⁻⁶ cm/s | 43.2 ± 0.7 ×10⁻⁶ cm/s | 64.9 ± 5.4 ×10⁻⁶ cm/s | 820 ± 80 nM | 5860 ± 210 nM | CC(C)=CCC12OC(C)(C)C3CC(C=C4C(=O)c5c(OCc6cn(CCCN7CCN(C)CC7)nn6)cccc5OC431)C2=O (centres unmarked) [Compound 8j] |  |  |  |  |  |  |  |  | melting point: 126 to 129 °C |

| SMILES | IC50 [1] | logD [2] | solubility [3] | IC50 [5] | IC50 [6] | IC50 [7] | Papp at 4 h, 10 mM ([8]; pH 5) | Papp at 4 h, 10 mM ([8]; pH 6.2) | Papp at 4 h, 10 mM ([8]; pH 7.4) | IC50 [10, 11] | IC50 (U2OS cells) | Body Weight Pre-Dose ([4]; 20 mg/kg) | Body Weight After-Dose ([4]; 20 mg/kg) | Inhibitory Rate ([4]; 20 mg/kg) | Weight of Tumor ([4]; 20 mg/kg) | Body Weight After-Dose [9] | Inhibitory Rate [9] | Weight of Tumor [9] | Body Weight Pre-Dose [9] | also measured |
| --- | --- | --- | --- | --- | --- | --- | --- | --- | --- | --- | --- | --- | --- | --- | --- | --- | --- | --- | --- | --- |
| CC(C)=CCC12OC(C)(C)C3CC(C=C4C(=O)c5c(O)cccc5OC431)C2=O (centres unmarked) [DDO-6101, reference compound] | 710 ± 100 nM | 2.9 | < 0.005 mM |  | 2040 ± 80 nM |  | 23.6 ± 5.5 ×10⁻⁶ cm/s | 25.8 ± 1.1 ×10⁻⁶ cm/s | 18 ± 3.9 ×10⁻⁶ cm/s | 460 ± 30 nM | 5350 ± 80 nM | 21.13 ± 1.22 g | 27.69 ± 1.90 g | 34.56% | 0.89 ± 0.18 ^b g | 26.69 ± 1.90 g | 21.43% | 1.10 ± 0.25 ^b g | 21.13 ± 1.02 g |  |
